# Patent publication US10053443B2, “2-phenylbenzofuran derivatives, method for preparing the same and use of the same for treating inflammatory disease” (KOREA RESEARCH INSTITUTE OF BIOSCIENCE AND BIOTECHNOLOGY, priority 2014, dated 2018)
# Legend:
# [1] = test system: interleukin-6; conditions: DBA/1 CIA mice, 30 mg/kg oral, FIG. 14
# Protocol: (§1) Bovine type II collagen (100 μg/mouse, Hondrax, Seattle, USA) and complete Freund's adjuvant (Chondrex, Seattle, USA) were intradermally injected in the tail of […]. On day 21, 100 μg of bovine type II collagen was mixed with incomplete Freund's adjuvant (IFA), which was injected in the tail of each mouse once again to induce arthritis.
# (§2) The compound of Example 25 of the invention was dissolved in a solvent (10% DMAC+10% Tween 80 in PBS).
# (§3) Administration pathway: Oral administration Group (6 per group) • Vehicle control group (CIA group) • Dexamethasone (0.3 mg/kg)—positive control group • Example 25 compound group (30 mg/kg)
# (§4) ELISA was performed with the serum and foot to investigate whether or not the compound of the invention could suppress the generation of TNF-alpha and interleukin-6, the inflammatory cytokines known as the promoter of inflammation which is the common symptom of acute and chronic arthritis.
# [2] = test system: TNF-alpha; conditions: DBA/1 CIA mice, 30 mg/kg oral, FIG. 13
# Protocol: as §1, §2, §3, §4
# [3] = test system: rheumatoid arthritis animal model; conditions: DBA/1 CIA mice, 30 mg/kg oral, FIGS. 11 and 12
# Protocol: as §1, §2, §3
# [4] = test system: Raw 264.7 (ATCC TIB71) cells; test: Evaluation of cell survival rate of macrophages (MTT); format: cell-based, mouse; conditions: Raw 264.7, 10 μM, 24 hours
# Protocol: Raw 264.7 (ATCC TIB71) cells, the mouse derived macrophages', were inoculated in a 96-well plate containing DMEM (Dulbecco's modified Eagle medium; Welgene, Korea) supplemented with 10% FBS (Fetal Bovine Serum), 2 mM glutamine, penicillin (100 unit/ml), and streptomycin (100 μg/ml) at the density of 1×10^4 cells/well. The cells were cultured in 5% CO2 at 37° C. for 4 hours to attach the cells onto the plate. Next, the cells were treated with each sample at different concentrations, followed by further culture for 24 hours. To investigate the cell survival rate, 5 mg/ml of MTT (3-(4,5-dimethylthiazol-2-yl)-2,5-diphenyltetrazoliumbromide, Amresco, OH, USA) was distributed thereto (10 μl/well), followed by culture for 4 hours. Then, the supernatant was eliminated. Formazan reduced from MTT by mitochondria was dissolved in 100 μl of DMSO and then OD570 was measured. 0.2% DMSO was used for the negative control.
# [5] = test system: interleukin-6 (IL-6) generation; test: Inhibition of interleukin-6 (IL-6) generation in LPS-treated Raw 264.7 cells (ELISA); format: cell-based, mouse; conditions: Raw 264.7, LPS treated; read-out: Grades of IC50 on IL-6 generation
# Protocol: Raw 264.7 cells were distributed by the same manner as described in Experimental Example <2-1>, and IL-6 included in the supernatant treated with each sample at different concentrations was measured by enzyme-linked immunosorbent assay (IL-6 ELISA kit, BD Bioscience, San Diego, Calif.).
# Particularly, 10-fold diluted supernatant was distributed in a 96-well plate on which IL-6 antibody was attached, followed by adhesion for 2 hours. The supernatant remaining after the adhesion was washed with a washing buffer. The detection antibody and HRP were adhered on the washed plate for 1 hour. The remaining antibody was washed. Color development was induced by using TMB substrate. The reaction was terminated with sulfuric acid solution. Then, OD450 was measured. IL-6 in the supernatant was quantified by using the standard curve made with the standard IL-6 included in the kit. IL-6 suppression rate was calculated by measuring the same concentration that could inhibit IL-6 generation up to 50% in the LPS treated group and the results are shown in Table 8.
# [6] = test system: Nitrogen Oxide (NO) generation; test: Inhibition of nitrogen oxide (NO) generation in LPS-treated Raw 264.7 cells (Griess); format: cell-based, mouse; conditions: Raw 264.7, LPS 500 ng/ml, 24 hours
# Protocol: Raw 264.7 (ATCC TIB71) cells were inoculated in a 96-well plate containing the same medium as used in Experimental Example 1 at the density of 1×10^5 cells/well. The cells were cultured in 5% CO2 at 37° C. for 4 hours to attach the cells onto the plate. The cells were treated with each sample at different concentrations, followed by further culture for 1 hour. […] were treated thereto at the final concentration of 500 ng/ml, followed by further culture for 24 hours. 100 μl of the supernatant was taken and transferred in a new plate, which was mixed with Griess reagent (a mixture of 1% sulfanilamide, 0.1% N-[1-naphthyl]-ethylenediamine dihydrochloride, and 5% phosphoric acid), followed by reaction for 10 minutes. Then, OD540 was measured. NO generation was quantified by using the sodium nitrite standard curve prepared from […] dissolved in the same medium at different concentrations. Considering the NO generation of the inflammation induced macrophages as 100%, the NO generation inhibition rate was calculated and presented in Table 7.
smiles,measurement,setting,value
"COc1cc(CCCO)cc(CCc2cccc(C)c2)c1O [Example 15, 4-(3-hydroxypropyl)-2-methoxy-6-(3-methylpenethyl)phenol]",generation of interleukin-6 induced by collagen,[1],inhibited
same,generation of TNF-alpha induced by collagen,[2],inhibited
same,edema in the foot induced by collagen (clinical score),[3],suppressed edema in the foot induced by collagen up to the level of the positive control
same,"Grades of cell survival rate (%, in 10 μM)",[4],A (A: 90<A≤100)
same,IC50,[5],20 to 30 µM
same,Grades of NO generation inhibition rate (%),[6],A (A: 35<A≤100)
